Laboratory results as given in patent US11795135B2, “Prostacyclin compounds, compositions and methods of use thereof” (Insmed Incorporated, priority 2013, dated 2023).
Entries after “also recorded” stand apart in the source; their conditions may differ. Like-named read-outs stand apart in the source and are kept apart here.

How the values were obtained:
[1] = system: esterase; test: Esterase mediated conversion of treprostinil compounds to treprostinil; format: in vitro ADME; details: incubation with esterase at 37° C., 1 hour (FIG. 28, 30)
Method: A set of studies was conducted to determine the conversion kinetics to treprostinil of linear treprostinil compounds versus various branched treprostinil compounds. 0.4 mM of linear C8-TR or branched treprostinil compounds 2-dimethyl-1-propanyl-TR, 3,3-dimethyl-1-butanyl-TR, 2-ethyl-1-butanyl-TR, 5-nonanyl-TR, or 3-pentanyl-TR (see below for structures) were incubated with 0.2 U esterase at 37° C. for 1 hour, and the conversion (% of total) was calculated at 0.25, 0.5, 0.75, or 1 hour incubation time. • C8-TR (i.e., the compound of Formula (A) wherein
The conversion is relative to the C8-TR compound and conversion was measured at 1 hr. post esterase incubation. • C8-TR (i.e., the compound of Formula (A) wherein
Conversion was measured at 1 hr. post esterase incubation. • 4C7-TR (i.e., the compound of Formula (A) wherein

[2] = system: CHO-K1 cells; test: CHO-K1 cell proliferation assay (Presto Blue)
Method: CHO-K1 cells were harvested when the cell monolayer was 50-90% confluent (use passage 4-11). Media was aspirated out of the flask, and cells were rinsed with 2 mL of F12 media. Next, 1 mL of pre-warmed (37° C.) 0.25% trypsin-EDTA (Life Technologies, Cat #: 25300054) was added, and cells were dislodged from the flask by tapping it on the side. Complete growth media (F12 (Life Technologies, Cat #: 31765092)+10% FBS (Hyclone, Cat #: SH30071.03)+1× Pen-Strep (Life Technologies, cat #15140-122) was then added at a volume of 10 mL. Cells were centrifuged at 250×g for 5 minutes at room temperature, and the media was aspirated. The cell pellet was resuspended in 10 mL complete growth media. Cell number was determined using a hemacytometer. Cells were then seeded at 2000 cells per well of a 96-well plate in 100 μL of complete growth media. The plate was incubated overnight at 37° C. and 5% CO2 in a water-jacketed incubator.
The next day, 80 μL of fresh complete media was added to each well, and CHO-K1 cells were challenged with treprostinil compound and composition treatments. The working solutions were prepared at 10× concentration, and following 2 fold serial dilutions, 20 μL aliquots were added per well to arrive at a final 1× concentration. Following a 48 hour incubation at 37° C. and 5% CO2 in a water-jacketed incubator, the inhibitory effect on cell proliferation was determined. Plates were analyzed using 20 μL of Presto Blue reagent (Life Technologies, cat #: A13262) per well. The reagent was mixed, and plates were incubated for 1 hour at 37° C. and 5% CO2 in a water-jacketed incubator. Plates were read using either a CytoFluor Series 4000 (PerSeptive BioSystems) or Synergy Neo microplate reader (BioTek) with emission λ: 590 nm and excitation λ: 560 nm.
at concentrations ranging from 0.55 μM to 125 μM. Following a 48 hour incubation period, the inhibitory effect of the treprostinil derivative compositions on cell proliferation was determined.
C2, C3, C4, C5, C6, C8, C10 or Cu straight chain alkyl, at dosages ranging from 0.098 μM to 25 μM. Following a 48 hour incubation period, the inhibitory effect on cell proliferation was determined.
Following a 72 hour incubation period, the inhibitory effect on cell proliferation was determined. Following a 48 hour incubation period, the inhibitory effect on cell proliferation was determined.
Similarly, CHO-K1 cells were challenged with the treprostinil compositions T612 (R2=C2), T613 (R2=C8) at concentrations ranging from 1.41 μM to 180 μM.

[3] = system: Rat alveolar NR8383 cells; test: NR8383 cell proliferation assay (Presto Blue); format: cell-based
Method: Rat alveolar NR8383 cells were harvested when the monolayer was 50-90% confluent (use passage 5-11). Because the NR8383 cells include both adherent and non-adherent cells, media was transferred to a 50 mL Falcon tube. To obtain the cells remaining in the flask, 2 mL of plain media was added, and the remaining cells were scraped out of the 75 cm^2 flask with a cell scraper and added to the 50 mL tube. […] SH30071.03)+1×Pen-Strep (Life Technologies, cat #: 15410-122)). Cell number was determined using a hemacytometer. […] Measurements and calculations were made as described above for the CHO-K1 cells.

[4] = biological target: T1, EP2 prostanoid receptor (Homo sapiens, UniProt P43116); test: GloSensor cAMP assay in CHO-K1 cells co-transfected with the EP2 receptor; format: cell-based; details: for ranking of activity of the treprostinil compounds: kinetic profile, 10 μM and 5 μM, FIG. 21
T1 construct: host or cells: CHO-K1
Excerpt: cAMP is a second messenger involved in signal transduction of G-protein coupled receptors (GPCRs) acting through Gα-s and Gα-i proteins. Because the treprostinil receptor is a GPCR, the assay provides an indication of whether the respective prostacyclin compound (or metabolite thereof) binds its receptor and activates the GPCR cell signaling cascade. The GloSensorTM assay harnesses a genetically modified form of firefly luciferase into which a cAMP-binding protein moiety has been inserted. Upon binding of cAMP, a conformational change is induced leading to increased light output. The EP2 prostanoid receptor was co-transfected with the GloSensorTM plasmid (Promega) into CHO-K1 cells as follows. CHO-K1 cells were harvested when the monoloayer was at 50-90% confluence. First, cells were washed with 5 mL PBS. […] The media was aspirated, and the cell pellet was resuspended in 10 mL of growth media. Cell number was determined using a hemacytometer. Each well of a culture treated 96 well flat bottom plate (Costar, Cat #: 3917) was seeded with 1×10^4 cells per 100 μL antibiotic-free growth media. […] For small scale transfections of up to 20 wells, the pGLoSensor-22F cAMP plasmid (Promega, Cat #: E2301) (2 μg): (EP2) (10 ng) (Origene, Cat #: SC126558):pGEM-3Zf(+) (10 ng) (Promega, Cat #: P2271) ratio was diluted to a final concentration of 12.6 ng/μL (total plasmid) in Opti-MEM I reduced-serum medium (Life Technologies, Cat #: 1985062). Next, 6 μL of FuGENE HD transfection reagent (Promega, Cat #: E2311) was added to 160 μL of diluted plasmid and mixed carefully by gentle pipetting. The complex was incubated at room temperature for 0 to 10 minutes, and then 8 μL of the complex was added per well of a 96 well white assay plate (Costar, Cat #: 3917) and gently mixed without disturbing the cell monolayer. […] Following incubation, cells were treated and analyzed. For larger scale transfections, the aforementioned steps were scaled up accordingly, and cells were frozen following the last incubation. In order to prepare frozen transfected CHO-K1 cells, the media was aspirated from culture flasks and cells were rinsed with 5 mL PBS. […] Cell number was determined using a hemacytometer. The media was aspirated, and the cell pellet was resuspended in freezing media (Millipore, cat #: S-002-5F) at 2.5×10^6 cells/vial. Transfected cells were incubated overnight at -80° C. before transfer to liquid nitrogen for long term storage. […] In preparation for cAMP measurement, the cells were equilibrated with the GloSensor cAMP reagent prior to treatment. For equilibration, the medium was carefully removed from the individual well. Next, 100 μL of equilibration medium ([…] of Glosensor Reagent stock solution (Promega, Cat #: E291), 10% FBS (Hyclone, Cat #: SH30071.03) and 88% CO2 independent medium (Life Technologies, Cat #: 18045088)) was added per well of the 96-well plate, and added to the side of each well. The plate was then incubated for 2 hours at room temperature. A first pre-read measurement was taken using a microplate reader (MicroLumat Plus). Plates were incubated for an additional 10 minutes at room temperature, followed by a second pre-read measurement. […] Following treatment, each plate was read every 5 minutes for the duration of the assay using a microplate reader (MicroLumat Plus). In order to determine the fold change in cAMP relative to the control, the transfection efficiency was first determined by dividing the second pre-read measurement by the average of the corresponding pre-read measurements. Next, the normalized relative light units (RLUs) of the samples were determined by dividing the plate read measurement by the transfection efficiency. The fold change in cAMP relative to the control was then determined by dividing the normalized RLU of the samples by the normalized RLU of the control. The cAMP assay was validated using free treprostinil. […] Luminescence was then measured at room temperature. […]

[5] = Particle size characterization of treprostinil compositions (QELS); format: physicochemical; details: particles of compositions comprising the alkyl ester, FIG. 2
Method: All particle size measurements were performed using a Wyatt Technology Mobius™ Zeta Potential/Particle Sizing Instrument in Quasi-elastic light scattering (QELS) mode. Composition aliquots were diluted 10-fold in pre-filtered (0.02 μm pore filter) ultrapure of deionized H2O. Light scattering data was collected and converted into particle size and size distribution using Dynamics® v. […] Reported average particle size diameter is based on the cumulants model, which mathematically fits particle diffusion constants (determined by the raw scattering intensities of particles in a suspension) to obtain the particle size mean and a distribution of particle sizes around the mean diameter.
Particle uniformity was determined using the software-calculated polydispersity (% PD). Polydispersity is defined as the standard deviation of the particle size distribution from the mean particle size value. % PD normalizes the polydispersity to the mean diameter by dividing by the mean size and multiplying by 100. These parameters indicate whether a particle suspension has one or more size populations of particles (monomodal versus multimodal). […]
Dynamics® polydispersity parameter represents a monodisperse population of particles if % PD≤15. A calculated % PD≥57% represents a polydisperse population of particles.

[6] = Treprostinil alkyl ester conversion to treprostinil in rat lung tissue homogenate; format: in vitro ADME; details: 37° C., 200 nM, 4 hours, 10 mg/mL of protein
Method: Treprostinil alkyl ester conversion to treprostinil was also measured in the presence of rat, dog and monkey lung tissue homogenate at 37° C. Here, data were calculated based on fit of exponential increase to the maximum (experiments performed in duplicate). The results of this study are provided below in Table 2A and FIG. 37. […] Both FIG. 37 experiments (left and right graphs) were performed in duplicate and the lines represent nonlinear exponential regression assuming 1 phase decay.

[7] = unformulated alkyl esters, 48 hour incubation
[8] = unformulated alkyl esters, 72 hour incubation

T1 sequence (P43116 whole entry): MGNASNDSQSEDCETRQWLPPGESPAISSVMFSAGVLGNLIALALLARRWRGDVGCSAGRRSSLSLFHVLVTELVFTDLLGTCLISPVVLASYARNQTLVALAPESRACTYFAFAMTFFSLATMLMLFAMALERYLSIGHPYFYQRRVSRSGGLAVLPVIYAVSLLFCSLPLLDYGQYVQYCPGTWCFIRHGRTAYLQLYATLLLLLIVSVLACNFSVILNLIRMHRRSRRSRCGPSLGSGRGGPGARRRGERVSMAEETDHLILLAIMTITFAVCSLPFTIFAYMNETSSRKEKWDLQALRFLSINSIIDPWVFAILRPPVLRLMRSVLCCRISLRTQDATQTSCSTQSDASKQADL

## CCCCCC(O)CCC1C(O)CC2Cc3c(cccc3OCC(=O)OC(CCC)CCCC)CC21 (mixture of isomers) [Compound 4C8-TR]
[1]
  esterase mediated conversion rate to treprostinil (comparison): slower conversion rate than the linear compound C8-TR; also recorded: slower conversion rate than the symmetrical compounds (4C7-TR and 5C9-TR)

## CCCCCCOC(=O)COc1cccc2c1C[C@H]1C[C@@H](O)[C@H](CC[C@@H](O)CCCCC)[C@H]1C2 [Compound C6-TR]
[2]; [7]
  Effect on cell proliferation, CHO-K1 Cells (0.195 μM-25 μM): No detectable cell inhibition
[3]; [8]
  Effect on cell proliferation, NR8383 Cells (0.195 μM-25 μM): No detectable cell inhibition

## CCCCCC[C@H](C)OC(=O)COc1cccc2c1C[C@H]1C[C@@H](O)[C@H](CC[C@@H](O)CCCCC)[C@H]1C2 [(S)-2C8-TR]
[1]
  esterase mediated conversion rate to treprostinil (comparison): no significant difference between the conversion rates of R and S isomers

## treprostinil decyl ester [Compound C10-TR]
[4]; 5 μM, FIG. 4 and FIG. 5
  duration of cAMP levels compared with free treprostinil and the C6, C8, and C12 derivatives: sustained significantly longer
[4]; 10 μM, composition, FIG. 3A
  cAMP levels compared with free treprostinil: equivalent to free treprostinil
  cAMP levels sustained for: at least 6 hours
[4]; compositions, 5 μM, FIG. 4
  cAMP response compared with the response induced by free treprostinil: greater than or equivalent to the response induced by free treprostinil
[4]; unformulated compounds, 5 μM, FIG. 5
  cAMP response level: equivalent to free treprostinil
[2]
  Effect on cell proliferation, CHO-K1 Cells (0.195 μM-25 μM): No detectable cell inhibition
[5]
  polydispersity (% PD): around 15%
[3]
  Effect on cell proliferation, NR8383 Cells (0.195 μM-25 μM): No detectable cell inhibition

## CCCCCCCCCCCCCCOC(=O)COc1cccc2c1C[C@H]1C[C@@H](O)[C@H](CC[C@@H](O)CCCCC)[C@H]1C2 [Compound C14-TR, tetradecyl-treprostinil]
[6]
  Rate of treprostinil alkyl ester conversion: 0.4 nmOL/h * g of protein
[4]
  ranking of activity of the treprostinil compounds: C12-TR>C14-TR>5-nonanyl-TR>C16-TR
[5]
  polydispersity (% PD): around 15%

## CCCCC[C@H](O)CC[C@@H]1[C@H]2Cc3cccc(OCC(=O)OC(CCCC)CCCC)c3C[C@H]2C[C@H]1O [Compound 5C9-TR, 5-nonanyl-treprostinil]
[1]
  esterase mediated conversion rate to treprostinil (comparison): slower conversion rate than the linear compound C8-TR
[1]; listed as 5-nonanyl-TR
  esterase mediated conversion rate to treprostinil (comparison): slower conversion rate than linear C8-TR
[4]
  ranking of activity of the treprostinil compounds: C12-TR>C14-TR>5-nonanyl-TR>C16-TR

## CCCCCC[C@@H](C)OC(=O)COc1cccc2c1C[C@H]1C[C@@H](O)[C@H](CC[C@@H](O)CCCCC)[C@H]1C2 [(R)-2C8-TR]
[1]
  esterase mediated conversion rate to treprostinil (comparison): no significant difference between the conversion rates of R and S isomers

## CCCCC[C@H](O)CC[C@@H]1[C@H]2Cc3cccc(OCC(=O)OCCCC)c3C[C@H]2C[C@H]1O [Compound C4-TR]
[2]; [7]
  Effect on cell proliferation, CHO-K1 Cells (0.195 μM-25 μM): No detectable cell inhibition
[3]; [8]
  Effect on cell proliferation, NR8383 Cells (0.195 μM-25 μM): No detectable cell inhibition

## CCCCC[C@H](O)CC[C@@H]1[C@H]2Cc3cccc(OCC(=O)OCC)c3C[C@H]2C[C@H]1O [Compound C2-TR, treprostinil ethyl ester]
[2]; [7]
  Effect on cell proliferation, CHO-K1 Cells (0.195 μM-25 μM): No detectable cell inhibition
[3]; [8]
  Effect on cell proliferation, NR8383 Cells (0.195 μM-25 μM): No detectable cell inhibition

## CCCCC[C@H](O)CC[C@@H]1[C@H]2Cc3cccc(OCC(=O)OCCC)c3C[C@H]2C[C@H]1O [Compound C3-TR]
[2]; [7]
  Effect on cell proliferation, CHO-K1 Cells (0.195 μM-25 μM): No detectable cell inhibition
[3]; [8]
  Effect on cell proliferation, NR8383 Cells (0.195 μM-25 μM): No detectable cell inhibition

## CCCCC[C@H](O)CC[C@@H]1[C@H]2Cc3cccc(OCC(=O)OC(CCC)CCC)c3C[C@H]2C[C@H]1O [Compound 4C7-TR]
[1]
  esterase mediated conversion rate to treprostinil (comparison): slower conversion rate than the linear compound C8-TR
